Laboratory results taken from patent US9796719B2, “Compounds and pharmaceutical compositions thereof for the treatment of inflammatory disorders” (GALAPAGOS NV, priority 2013, dated 2017).

Key:
Assay type in all cases: biochemical
[1] = biological target: T1, hENPP2 (UniProtKB/SwissProt Sequence ref Q13822) (Homo sapiens (Human), UniProt Q13822); assay: LPC hENPP2 assay (choline release, LPC as substrate)
Method in brief: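 Choline released from LPC by ENPP2 is quantified after stopping with stop-developer containing 0.6 U/mL choline oxidase, 0.6 U/mL peroxidase, 1.8 mM TOOS, 1.2 mM amino-antipyrine and 20 mM EGTA. Quinoneimine dye read at 555 nm after 30 min at room temperature.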

[2] = biological target: T1, hENPP2; assay: FS3 hENPP2 assay (fluorogenic substrate FS-3); details: hENPP2, FS-3 as substrate
Method in brief: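 Compound dilutions (1/5 steps, top concentration as added 20 μM) were preincubated 30 min at room temperature with hENPP2 (0.4 or 0.64 μg/mL final) in pH 8.0 Tris buffer containing NaCl, KCl, MgCl2, CaCl2 and 0.1% fatty-acid-free BSA. FS-3 (0.75 μM as added) was then hydrolysed for 30 min at 30 °C, and fluorescence was read at 485/520 nm.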

[3] = test system: LPA 18:2; assay: Rat whole blood (plasma) LPA assay
Method: Whole blood is collected from rats or mouse by exsanguinations on sodium heparin tube, then after centrifugation at 3000 rpm for 15 min at 4° C., plasma is stored at −80° C. Compounds are diluted in DMSO in concentration dependent manner then 0.5 μL are dispensed into 96-wells plate placed in ice. Plasma is defrosted on ice then 49.5 μL of plasma are added into the well containing 0.5 μL of compound (1% DMSO final). Plates are covered with a lid in polypropylene and incubated at +37° C., 5% CO2, for 2 h under gentle shaking (except controls which are stored at −20° C.).
At the end of the incubation, controls are defrosted in ice and transferred in the incubated plates for LC-MS/MS analysis with a non GLP-validated method. For the analysis, plasma proteins from a 10 μL incubated plates are precipitated with an excess of methanol containing the internal standard, LPA 17:0. After centrifugation, the corresponding supernatant is injected on a C18 column. Analytes are eluted out of the column under isocratic conditions. An API5500 QTRAP mass spectrometer (ABSciex™) is used for the detection of LPA 18:2. No calibration curve is prepared for LPA 18:2, however relative quantities are evaluated based on the peak area.

SMILES: CN(c1nc(-c2ccc(F)cc2)cs1)c1c(CCC#N)nc2ccc(C3CCN(S(C)(=O)=O)CC3)nn12 [Compound 198, 3-(3-((4-(4-fluorophenyl)thiazol-2-yl)(methyl)amino)-6-(1-(methylsulfonyl)piperidin-4-yl)imidazo[1,2-b]pyridazin-2-yl)propanenitrile]
- IC50 [1]: 100 to 500 nM
- IC50 [2]: 0.01 to 25 nM
- IC50 [3]: 0.01 to 100 nM

SMILES: CCc1nc2cnc(N3CCN(CC(=O)N(C)C)CC3)cn2c1N(C)c1nc(-c2ccc(F)cc2)c(C#N)s1 [Cpd 5, 2-(4-(3-((5-cyano-4-(4-fluorophenyl)thiazol-2-yl)(methyl)amino)-2-ethylimidazo[1,2-a]pyrazin-6-yl)piperazin-1-yl)-N,N-dimethylacetamide]
- IC50 [1]: 100 to 500 nM
- IC50 [2]: 0.01 to 25 nM
- IC50 [3]: > 1000 nM

SMILES: CCc1nc2cnc(N3CCN(CC(=O)N4CC[C@@H](O)C4)CC3)cn2c1N(C)c1nc(-c2ccc(F)cc2)c(C#N)s1 [Cpd 6, (R)-2-((2-ethyl-6-(4-(2-(3-hydroxypyrrolidin-1-yl)-2-oxoethyl)piperazin-1-yl)imidazo[1,2-a]pyrazin-3-yl)(methyl)amino)-4-(4-fluorophenyl) thiazole-5-carbonitrile]
- IC50 [1]: 100 to 500 nM
- IC50 [2]: 0.01 to 25 nM
- IC50 [3]: 100 to 500 nM

SMILES: CCc1nc2cnc(N3CCN(CC(=O)N4CC[C@H](O)C4)CC3)cn2c1N(C)c1nc(-c2ccc(F)cc2)c(C#N)s1 [Cpd 7, (S)-2-((2-ethyl-6-(4-(2-(3-hydroxypyrrolidin-1-yl)-2-oxoethyl)piperazin-1-yl)imidazo[1,2-a]pyrazin-3-yl)(methyl)amino)-4-(4-fluorophenyl) thiazole-5-carbonitrile]
- IC50 [1]: 100 to 500 nM
- IC50 [2]: 0.01 to 25 nM
- IC50 [3]: 100 to 500 nM

SMILES: CCc1nc2cnc(N3CCN(CC(=O)N4CCOCC4)CC3)cn2c1N(C)c1nc(-c2ccc(F)cc2)c(C#N)s1 [Cpd 10, 2-((2-ethyl-6-(4-(2-morpholino-2-oxoethyl)piperazin-1-yl)imidazo[l,2-a]pyrazin-3-yl)(methyl)amino)-4-(4-fluorophenyl) thiazole-5-carbonitrile]
- IC50 [1]: 100 to 500 nM
- IC50 [2]: 0.01 to 25 nM
- IC50 [3]: > 1000 nM

SMILES: CCc1nc2cnc(N3CCN(CC(=O)N4CC(O)C4)CC3)cn2c1N(C)c1nc(-c2ccc(F)cc2)cs1 [Cpd 14, 2-(4-(2-ethyl-3-((4-(4-fluorophenyl)thiazol-2-yl)(methyl)amino)imidazo[1,2-a]pyrazin-6-yl)piperazin-1-yl)-1-(3-hydroxyazetidin-1-yl)ethanone]
- IC50 [1]: > 1000 nM
- IC50 [3]: > 1000 nM

SMILES: CCc1nc2cnc(N3CCN(CC(=O)N4CC(O)C4)CC3)cn2c1N(C)c1nc(-c2ccc(F)cc2C#N)cs1 [Cpd 16, 2-(2-((2-ethyl-6-(4-(2-(3-hydroxyazetidin-1-yl)-2-oxoethyl)piperazin-1-yl)imidazo[1,2-a]pyrazin-3-yl)(methyl)amino)thiazol-4-yl)-5-fluorobenzonitrile]
- IC50 [1]: > 1000 nM
- IC50 [2]: 50 to 100 nM
- IC50 [3]: > 1000 nM

SMILES: CCc1nc2ccc(N3CCC4(CNC(=O)O4)C3)nn2c1N(C)c1nc(-c2ccc(F)cc2)cs1 (stereo not shown) [Cpd 118, 7-(2-ethyl-3-((4-(4-fluorophenyl)thiazol-2-yl)(methyl)amino)imidazo[1,2-b]pyridazin-6-yl)-1-oxa-3,7-diazaspiro[4.4] nonan-2-one]
- IC50 [1]: 500 to 1000 nM
- IC50 [3]: > 1000 nM

SMILES: CCc1nc2ccc(N3CCC(N4CCOCC4)C3)nn2c1N(C)c1nc(-c2ccc(F)cc2)cs1 (stereo not shown) [Cpd 147, N-(2-ethyl-6-(3-morpholino-pyrrolidin-1-yl)imidazo[1,2-b]pyridazin-3-yl)-4-(4-fluorophenyl)-N-methylthiazol-2-amine]
- IC50 [1]: 100 to 500 nM
- IC50 [2]: 0.01 to 25 nM

SMILES: CCc1nc2ccc(N3CCC(N4CCOCC4)C3)nn2c1N(C)c1nc(-c2ccc(F)cc2)c(C#N)s1 (stereo not shown) [Cpd 149, 2-((2-ethyl-6-(3-morpholino-pvrrolidin-1-yl)imidazo[1,2-b]pyridazin-3-yl)(methyl)amino)-4-(4-fluorophenyl) thiazole-5-carbonitrile]
- IC50 [1]: 0.01 to 100 nM
- IC50 [3]: 0.01 to 100 nM

SMILES: CCc1nc2ccc(N3CCC(N4CCS(=O)(=O)CC4)C3)nn2c1N(C)c1nc(-c2ccc(F)cc2)cs1 (stereo not shown) [Cpd 150, {6-[3-(1,1-Dioxo-thiomorpholin-4-yl)-pyrrolidin-1-yl]-2-ethyl-imidazo[1,2-b]pyridazin-3-yl}-[4-(4-fluoro-phenyl)-thiazol-2-yl]-methyl-amine]
- IC50 [1]: > 1000 nM
- IC50 [2]: 0.01 to 25 nM

SMILES: CCc1nc2ccc(N3CCC(N4CCCCC4)C3)nn2c1N(C)c1nc(-c2ccc(F)cc2)cs1 (stereo not shown) [Cpd 151, N-(2-ethyl-6-(3-(piperidin-1-yl)pyrrolidin-1-yl)imidazo[1,2-b]pyridazin-3-yl)-4-(4-fluorophenyl)-N-methylthiazol-2-amine]
- IC50 [1]: > 1000 nM
- IC50 [2]: 0.01 to 25 nM

SMILES: CCc1nc2ccc(N3CCC(N4CCC(O)CC4)C3)nn2c1N(C)c1nc(-c2ccc(F)cc2)cs1 (stereo not shown) [Cpd 152, 1-(1-(2-ethyl-3-((4-(4-fluorophenyl)thiazol-2-yl)(methyl)amino)imidazo[1,2-b]pyridazin-6-yl)pyrrolidin-3-yl)piperidin-4-ol]
- IC50 [1]: 500 to 1000 nM
- IC50 [2]: 0.01 to 25 nM

SMILES: CCc1nc2ccc(N3CC(NC(=O)OC(C)(C)C)C3)nn2c1N(C)c1nc(-c2ccc(F)cc2)cs1 [Cpd 154, [1-(2-Ethyl-3-{[4-(4-fluoro-phenyl)-thiazol-2-yl]-methyl-amino}-imidazo[1,2-b]pyridazin-6-yl)-azetidin-3-yl]-carbamic acid tert-butyl ester]
- IC50 [1]: > 1000 nM
- IC50 [2]: 0.01 to 25 nM

SMILES: CCc1nc2ccc(N3CCC(O)C3)nn2c1N(C)c1nc(-c2ccc(F)cc2)c(C#N)s1 (stereo not shown) [Cpd 171, 2-((2-ethyl-6-(3-hydroxypyrrolidin-1-yl)imidazo[1,2-b]pyridazin-3-yl)(methyl)amino)-4-(4-fluorophenyl) thiazole-5-carbonitrile]
- IC50 [1]: 100 to 500 nM
- IC50 [2]: 0.01 to 25 nM

SMILES: CCc1nc2ccc(C3=CCN(S(C)(=O)=O)CC3)nn2c1N(C)c1nc(-c2ccc(F)cc2)cs1 [Cpd 194, N-(2-ethyl-6-(1-(methylsulfonyl)-1,2,3,6-tetrahydropyridin-4-yl)imidazo[1,2-b]pyridazin-3-yl)-4-(4-fluorophenyl)-N-methylthiazol-2-amine]
- IC50 [1]: > 1000 nM
- IC50 [2]: 0.01 to 25 nM

SMILES: CCc1nc2ccc(C3CCN(CC(=O)N(C)C)CC3)nn2c1N(C)c1nc(-c2ccc(F)cc2)cs1 [Cpd 202, 2-(4-(2-ethyl-3-((4-(4-fluorophenyl)thiazol-2-yl)(methyl)amino)imidazo[1,2-b]pyridazin-6-yl)piperidin-1-yl)-N,N-dimethylacetamide]
- IC50 [1]: 500 to 1000 nM
- IC50 [2]: 0.01 to 25 nM

SMILES: CCc1nc2ccc(C3CCN(S(C)(=O)=O)CC3)nn2c1N(C)c1nc(-c2ccc(F)cc2C#N)cs1 [Cpd 205, 2-(2-((2-ethyl-6-(1-(methylsulfonyl)piperidin-4-yl)imidazo[1,2-b]pyridazin-3-yl)(methyl)amino)thiazol-4-yl)-5-fluorobenzonitrile]
- IC50 [1]: 100 to 500 nM
- IC50 [3]: 100 to 500 nM

SMILES: CCc1nc2ccc(C3CCN(S(C)(=O)=O)CC3)nn2c1N(C)c1nc(-c2ccc(F)cc2C#N)c(CO)s1 [Cpd 206, 2-(2-((2-ethyl-6-(1-(methylsulfonyl)piperidin-4-yl)imidazo[1,2-b]pyridazin-3-yl)(methyl)amino)-5-(hydroxymethyl)thiazol-4-yl)-5-fluorobenzonitrile]
- IC50 [1]: 500 to 1000 nM
- IC50 [3]: 100 to 500 nM

SMILES: CCc1nc2ccc(C3CCN(CC(=O)N4CC(O)C4)CC3)nn2c1N(C)c1nc(-c2ccc(F)cc2)c(C#N)s1 [Cpd 212, 2-((2-ethyl-6-(1-(2-(3-hydroxyazetidin-1-yl)-2-oxoethyl)piperidin-4-yl)imidazo[1,2-b]pyridazin-3-yl)(methyl)amino)-4-(4-fluorophenyl) thiazole-5-carbonitrile]
- IC50 [1]: 0.01 to 100 nM
- IC50 [2]: 0.01 to 25 nM

SMILES: CCc1nc2ccc(C3CCN(CC(=O)N4CC(O)C4)CC3)nn2c1N(C)c1cccc(-c2ccc(F)cc2)n1 [Cpd 214, 2-(4-(2-ethyl-3-((6-(4-fluorophenyl)pyridin-2-yl)(methyl)amino)imidazo[1,2-b]pyridazin-6-yl)piperidin-1-yl)-1-(3-hydroxyazetidin-1-yl)ethanone]
- IC50 [1]: 500 to 1000 nM
- IC50 [2]: 0.01 to 25 nM

SMILES: CCc1nc2ccc(C3CCN(CC(=O)N4CC(O)C4)CC3)nn2c1N(C)c1nccc(-c2ccc(F)cc2)n1 [Cpd 215, 2-(4-(2-ethyl-3-((4-(4-fluorophenyl)pyrimidin-2-yl)(methyl)amino)imidazo[1,2-b]pyridazin-6-yl)piperidin-1-yl)-1-(3-hydroxyazetidin-1-yl)ethanone]
- IC50 [1]: 100 to 500 nM
- IC50 [2]: 0.01 to 25 nM

SMILES: CCc1nc2ccc(C3CCN(CC(=O)N4CC(O)C4)CC3)nn2c1N(C)c1nc(-c2ccc(F)cc2)ccc1C#N [Cpd 217, 2-((2-ethyl-6-(1-(2-(3-hydroxyazetidin-1-yl)-2-oxoethyl)piperidin-4-yl)imidazo[1,2-b]pyridazin-3-yl)(methyl)amino)-6-(4-fluorophenyl) nicotinonitrile]
- IC50 [1]: > 1000 nM
- IC50 [2]: 50 to 100 nM
